Experimental data from patent US6500421B1, “In vivo selection of primitive hematopoietic cells” (St. Jude Children's Research Hospital, priority 1999, dated 2002).

How the values were obtained:
[1] = system: human myeloid progenitor cells; settings: in vitro, MTX-containing cultures, human DHFR variant (Flasshove et al. 1995); cited from earlier work
[2] = system: vector-expressing myeloid progenitor cells; settings: mice, human DHFR variant (Zhao et al. 1994); cited from earlier work
[3] = system: murine myeloid progenitors; assay: Defined in vitro liquid culture of unseparated murine bone marrow, myeloid progenitor assay after four days; assay type: cell-based, mice; settings: TMTX 150 nM; for sensitization of progenitor cells to TMTX: TTI at 1.0 μM or 0.1 μM, 0.1 μM or 1 μM thymidine
Description: FIGS. 1a & 1b a show TTIs effectively block nucleoside salvage and potentiate TMTX toxicity at physiological concentrations of thyrnidine. Unseparated bone marrow from normal C57B1/6 or WBBF1+/+ mice were cultured in DMEM plus dialyzed FBS with or without 150 nM TMTX, […] hypoxanthine and 0.1, 1.0 or 10 μM thymidine. In addition, either A) NBMPR or B) draflazine at 0.1 or 1.0 μM were added to the indicated suspension cultures. Progenitors were assayed by a semisolid methylcellulose-based myeloid progenitor assay after four days of suspension culture.
We developed a defined in vitro liquid culture system to determine the mechanism by which murine myeloid progenitors escape killing with TMTX. This system involves the culture of unseparated murine bone marrow in medium supplemented with optimal concentrations of hematopoietic growth factors (IL-3 at 20 ng/ml, human IL-6 at 50 ng/ml, rat SCF at 50 ng/ml), and either undialyzed fetal bovine serum (FBS) or dialyzed FBS at 15% v/v final concentration, that has been depleted of detectable thymidine and hypoxanthine. The progenitor content is determined four days after culture initiation.
The number of progenitors in cultures without TMTX were similar using either dialyzed or undialyzed serum. However, TMTX addition (150 nM) allowed survival of at least 50% of the myeloid progenitors in cultures containing undialyzed serum compared to 5% progenitor survival in cultures containing dialyzed serum.
Thymidine transport inhibitors (TTI) were added to our defined liquid culture system. […] However, supraphysiological thymidine levels (10 μM) were able to overcome the TTI-specific blockage of thymidine import, restoring full progenitor survival.

[4] = system: murine myeloid progenitors; assay: In vivo treatment of normal mice; bone marrow cellularity and myeloid progenitor content per femur; settings: for marrow cellularity / number of myeloid progenitors in the marrow: ip five consecutive days, 24 hrs after last treatment, TMTX 130 mg/kg, NBMPR-P 20 mg/kg, draflazine 20 mg/kg, alone or combined; for number of myeloid progenitors in the marrow: relative to untreated control mice
Description: FIGS. 3a & 3b show thymidine transport inhibitors sensitize murine progenitors to TMTX in vivo Normal C57B1/6, WBBF1+/+ or B6.C-H1^6/By (HW80) mice were administered TMTX (130 mg/kg), NBMPR-P (20 mg/kg) or draflazine (20 mg/kg) alone, or the combination of TMTX+NBMPR-P or TMTX+draflazine ip for five consecutive days. 24 hrs following the last treatment, mice were sacrificed and bone marrow cellularity and myeloid progenitor content per femur were analyzed relative to untreated mice.
To determine if the antifolate trimetrexate (TMTX), could be used to inhibit hematopoietic progenitor cells which had not been genetically modified to contain and express a mutant dihydrofolate reductase, we treated mice with high doses of TMTX and measured the myeloid progenitor and stem cell content in the bone marrow. Mice were intraperitoneally administered 100 or 130 mg/kg TMTX for five consecutive days. Bone marrow cellularity and progenitor content was examined relative to untreated mice 24 hrs after the final treatment. […] Thus, although differentiated murine hematopoietic cells are highly sensitive to TMTX in vivo, immature myeloid progenitors resist it's cytotoxic effects.
In order to determine whether the combination of TMTX and TTIs will kill murine myeloid progenitors in vivo, normal mice were intraperitoneally administered TMTX (130 mg/kg) together with either NBMPR-5′ monophosphate (NBMPR-P) (20 mg/kg) or draflazine (20 mg/kg) for five consecutive days. […] The myeloid progenitor content in the marrow was also measured following these various treatments. […] Thus, while TMTX alone is insufficient for the killing of myeloid progenitors in vivo, either draflazine or NBMPR-P can be used to sensitize progenitors to TMTX thereby allowing elimination of unmodified cells in vivo.

[5] = system: hematopoietic stem cells; assay: Stem cell kill: marrow of treated C57B1/6J donors transplanted into W/Wv mice, hemoglobin electrophoresis; assay type: in vivo; settings: donors given five daily doses of TMTX at 100 mg/kg/day
Description: C57B1/6 donor mice were administered either 100 mg/kg TMTX, 100 mg/kg TMTX+20 mg/kg NBMPR-P, or 130 mg/kg TMTX+20 mg/kg NBMPR-P ip for five consecutive days. 24 hrs following the last treatment, bone marrow was harvested and transplanted into genetically anemic W/W^V mice. The hemoglobin phenotype of transplanted mnice was determined after 8 weeks.
The above experiments indicate that the combination of an antifolate (TMTX) and TTIs effectively eliminates unmodified myeloid progenitors. Although selection at the progenitor level should be useful in a number of circumstances, selection at the level of repopulating stem cells should give the most durable and stable selection of vectormodified cells. To test if the combination of TMTX and NBMPR-P could be used to kill unmodified stem cells, C57B1/6J mice were treated with various drug combinations (intraperitoneal injections at the following doses: trimetrexate at 130 mg/kg, NBMPR-P at 20 mg/kg, and draflazine at 20 mg/kg) and then used as donors for bone marrow transplantation. Stem cell viability was measured by hemoglobin electrophoresis patterns in W/Wv mice used as transplant recipients. […]
Repopulation can be monitored by hemoglobin electrophoresis, which can distinguish the pattern obtained from C57B1/6J erthryocytes versus the W/Wv background.

[6] = system: human myeloid progenitor cells; assay: L22Y-DHFR or neo transduced human peripheral blood progenitors plated in semisolid media with TMTX; assay type: cell-based; settings: mobilized human peripheral blood progenitors, L22Y-DHFR versus neo transduced, TMTX 0 to 500 ng/ml in semisolid media
Description: Peripheral blood cells collected following chemotherapy and growth factor mobilization were prestimulated for 48 hrs with IL-3, IL-6 and SCF, followed by coculture on irradiated amphotropic retroviral producers (L22Y-DHFR or neo) for an additional 48 hrs. Nonadherent hematopoietic cells were then assayed for drug resistant progenitors by addition of increasing concentrations of TMTX to the semisolid methylcellulose cultures.
Human progenitor cells were transduced as follows. Mononuclear cells were isolated by passing peripheral blood cells over a Ficoll gradient. These cells were cultured at 5×10^5 cells/ml in the presence of human IL-3 at 20 ng/ml, human IL-6 at 50 ng/ml, and human SCF at 50 ng/ml and 15% v/v fetal calf serum. After 48 hours, these cells were placed on plates containing an irradiated confluent layer of fibroblasts that were producing the amphotropic L22Y vector. The cytokine concentrations during this coculture period were identical to that used during the previous prestimulation phase. Protamine sulfate was also included during the coculture phase at a concentration of 4 μg/ml. After 48 hours of coculture, cells were washed and plated in semisolid media obtained from Stem Cell Technologies according to manufacturers specifications. This media was pretreated with thymidine phosphorylase at 1 unit/3 ml of media. […]

[7] = system: human CD34 immunoselected progenitors; assay: Human CD34-enriched peripheral blood progenitors in defined liquid culture; assay type: cell-based; settings: 1.0 μM draflazine, 150 nM trimetrexate, 100 μM hypoxanthine, thymidine 0 to 1.0 micromolar, dialyzed serum
Description: CD34-enriched, mobilized peripheral blood progenitors were assayed in the defined suspension culture system, as described for murine cells in the legend to FIG. 1. Two separate human samples were examined, and progenitor survival is represented relative to progenitors cultured without TMTX.
We examined the ability of draflazine to potentiate TMTX toxicity of human CD34 immunoselected progenitors in our defined liquid culture system comprising 15% dialyzed fetal calf serum, 20 ng/ml human IL-3, 50 ng/ml human IL-6, and 50 ng/ml human SCF in the presence-or absence of 1.0 μM draflazine, 100 μM hypoxanthine, 150 nM trimetrexate, and varying concentrations of thymidine ranging from 0 to 1.0 micromolar. […] CD34 selection was done using a Ceprate cell column (CellPro) according to the manufacturers instructions.

In the case of CN(Cc1cnc2nc(N)nc(N)c2n1)c1ccc(C(=O)N[C@@H](CCC(=O)O)C(=O)O)cc1 [MTX, methotrexate], the “amplification of vector-expressing progenitor cells” value [1] is given as “amplified two-fold” and the “increase in vector-expressing myeloid progenitor cells following MTX treatment” value [2] is given as 2 fold.
With O=[N+]([O-])c1ccc(CSc2ncnc3c2ncn3[C@@H]2O[C@H](CO)[C@@H](O)[C@H]2O)cc1 [NBMPR, nitrobenzylmercaptopurine riboside] the “sensitization of progenitor cells to TMTX” value [3] was “effectively sensitized progenitor cells to TMTX”.
With O=[N+]([O-])c1ccc(CSc2ncnc3c2ncn3[C@@H]2O[C@H](COP(=O)(O)O)[C@@H](O)[C@H]2O)cc1 [NBMPR-P, NBMPR-5′ monophosphate] the marrow cellularity [4] was “neither TTI alone had any measurable effect” and the “number of myeloid progenitors in the marrow” value (shortened to “number … in the marrow”) [4] was “no effect on progenitor survival”.
In the case of COc1cc(NCc2ccc3nc(N)nc(N)c3c2C)cc(OC)c1OC [TMTX, trimetrexate], the “number of myeloid progenitors and stem cells per femur” value ([4]; TMTX 100 or 130 mg/kg ip for five consecutive days, 24 hrs after final treatment) is reported as “remained the same in all groups of mice”, the bone marrow cellularity ([4]; TMTX 100 or 130 mg/kg ip for five consecutive days, 24 hrs after final treatment, relative to untreated mice) is reported as “severe marrow hypoplasia” and the “number … in the marrow” value [4] is reported as “modest increase”. For the same compound, the “hematopoietic repopulating ability of donor marrow” value [5] was “failed to adversely effect”, the “rescue of myeloid progenitors from TMTX toxicity” value ([3]; dialyzed serum treated with thymidine phosphorylase, hypoxanthine 100 μM alone added) was “did not rescue myeloid progenitors from TMTX toxicity” and the myeloid progenitor survival ([3]; dialyzed serum, both thymidine and hypoxanthine added) was “fully restored myeloid progenitor survival”. The progenitor survival ([3]; dialyzed serum, four days) was 5%, the “restoration of TMTX resistance of progenitors” value ([3]; dialyzed serum, thymidine 1.0 μM alone added) was “did not restore TMTX resistance” and the “survival of myeloid progenitors” value ([3]; undialyzed serum, four days) was “at least 50%”. For the same compound, the “TMTX resistance of L22Y-DHFR transduced progenitors” value [6] was “increased TMTX-resistance relative to control (neo) transduced progenitor cells”.
With NC(=O)C1CN(CCCCC(c2ccc(F)cc2)c2ccc(F)cc2)CCN1CC(=O)Nc1c(Cl)cc(N)cc1Cl (stereo not shown) [draflazine] the “potentiation of TMTX toxicity” value [7] was “effectively potentiated TMTX toxicity”, the marrow cellularity [4] was “neither TTI alone had any measurable effect” and the “number … in the marrow” value [4] was “no effect on progenitor survival”. The “sensitization of progenitor cells to TMTX” value [3] was “effectively sensitized progenitor cells to TMTX”.
